Consider 15 compounds from patent US20230219931A1, “FUSED HETEROARYL HYDROXAMATES AS STING AGONISTS” (BiSiChem Co., Ltd., priority 2022, published 2023).

In this experiment the test system is ISG reporter activity in THP1-Dual cell. In words: ISG reporter assay. Type of experiment: cell-based. The note with it: Homo sapiens, compounds incubated with cells for 24 hours, QUANTI-Blue, absorbance at 655 nm. As to the method:
[Worded in the source for another cell line; this cell line is reported under the same test.] THP1-Blue cells (cat. no. thp-isg) were purchased from InvivoGen (Sandiago, USA). Penicillin—streptomycin (cat. no. L0022-100), Fetal Bovine Serum (FBS) (cat. no. S1480-500) and Roswell Park Memorial Institute (RPMI) 1640 media (cat. L0498-500) were purchased from biowest (Nuaille, France). Zeocin (cat. no. ant-zn-OS) and Normocin (cat. no. ant-nr-1) were purchased from InvivoGen (Sandiago, USA). QUANTI-Blue™ (cat. no. rep-qbs) was purchased from InvivoGen. THP1-Blue cells were cultured in RPMI 1640 medium with 10% heat-inactivated FBS, 100 μg/ml Normocin, 100 μg/ml Zeocin and 100 U/ml-100 μg/ml penicillin-streptomycin. The cells were incubated at 37° C. in a humidified atmosphere of 5% CO2.
THP1-Blue cells were seeded at 5×10^4 cells/well (90 μl/well). 10 μl of compounds were added to the cells and incubated for 24 hours. 20 μl of cell culture supernatant was dispensed new 96-well plate (cat. no. 30096) with 180 μl of QUANTI-Blue™ solution and incubated for 15 minutes at 37° C. The absorbance was measured by Varioskan Lux (Thermofisher Scientific, USA) at 655 nm.

Where a name gives a salt, the structure may show the parent alone. Some results are limits rather than exact numbers.

With `CCn1nc(C)cc1C(=O)Nc1nc2cc(C(N)=O)cc(OC)c2n1C/C=C/Cn1c(NC(=O)c2cc(C)nn2CC)nc2cc(C(N)=O)cc(OCC#CC3CCN(S(=O)(=O)c4ccc(C)cc4)CC3)c21` [Example 23, (E)-1-(4-(5-carbamoyl-2-(1-ethyl-3-methyl-1H-pyrazole-5-carboxamido)-7-((3-(1-tosylpiperidin-4-yl)prop-2-yn-1-yl)oxy)-1H-benzo[d]imidazol-1-yl)but-2-en-1-yl)-2-(1-ethyl-3-methyl-1H-pyrazole-5-carboxamido)-7-methoxy-1H-benzo[d]imidazole-5-carboxamide], the EC50 was less than 50 nM.

In turn, `CCn1nc(C)cc1C(=O)Nc1nc2cc(C(N)=O)cc(OC)c2n1C/C=C/Cn1c(NC(=O)c2cc(C)nn2CC)nc2cc(C(N)=O)cc(OCC#CC3CCN(S(=O)(=O)N(C)C)CC3)c21` [Example 24, (E)-1-(4-(5-carbamoyl-2-(1-ethyl-3-methyl-1H-pyrazole-5-carboxamido)-7-methoxy-1H-benzo[d]imidazol-1-yl)but-2-en-1-yl)-7-((3-(1-(N,N-dimethylsulfamoyl)piperidin-4-yl)prop-2-yn-1-yl)oxy)-2-(1-ethyl-3-methyl-1H-pyrazole-5-carboxamido)-1H-benzo[d]imidazole-5-carboxamide] displayed an EC50 of less than 50 nM. Turning to `CCN(CC)S(=O)(=O)N1CCC(C#CCOc2cc(C(N)=O)cc3nc(NC(=O)c4cc(C)nn4CC)n(C/C=C/Cn4c(NC(=O)c5cc(C)nn5CC)nc5cc(C(N)=O)cc(OC)c54)c23)CC1` [Example 25, (E)-1-(4-(5-carbamoyl-2-(1-ethyl-3-methyl-1H-pyrazole-5-carboxamido)-7-methoxy-1H-benzo[d]imidazol-1-yl)but-2-en-1-yl)-7-((3-(1-(N,N-diethylsulfamoyl)piperidin-4-yl)prop-2-yn-1-yl)oxy)-2-(1-ethyl-3-methyl-1H-pyrazole-5-carboxamido)-1H-benzo[d]imidazole-5-carboxamide], the EC50 was less than 50 nM. Take `CCn1nc(C)cc1C(=O)Nc1nc2cc(C(N)=O)cc(OC)c2n1C/C=C/Cn1c(NC(=O)c2cc(C)nn2CC)nc2cc(C(N)=O)cc(OCC#CC3CCN(S(=O)(=O)N4CCCC4)CC3)c21` [Example 26, (E)-1-(4-(5-carbamoyl-2-(1-ethyl-3-methyl-1H-pyrazole-5-carboxamido)-7-((3-(1-(pyrrolidin-1-ylsulfonyl)piperidin-4-yl)prop-2-yn-1-yl)oxy)-1H-benzo[d]imidazol-1-yl)but-2-en-1-yl)-2-(1-ethyl-3-methyl-1H-pyrazole-5-carboxamido)-7-methoxy-1H-benzo[d]imidazole-5-carboxamide]: the half-maximal effective concentration (EC50) was less than 50 nM.

In turn, `CCn1nc(C)cc1C(=O)Nc1nc2cc(C(N)=O)cc(OC)c2n1C/C=C/Cn1c(NC(=O)c2cc(C)nn2CC)nc2cc(C(N)=O)cc(OCC#CC3CCN(S(=O)(=O)N4CCOCC4)CC3)c21` [Example 27, (E)-1-(4-(5-carbamoyl-2-(1-ethyl-3-methyl-1H-pyrazole-5-carboxamido)-7-((3-(1-(morpholinosulfonyl)piperidin-4-yl)prop-2-yn-1-yl)oxy)-1H-benzo[d]imidazol-1-yl)but-2-en-1-yl)-2-(1-ethyl-3-methyl-1H-pyrazole-5-carboxamido)-7-methoxy-1H-benzo[d]imidazole-5-carboxamide] yielded an EC50 of less than 50 nM. For the compound `CCn1nc(C)cc1C(=O)Nc1nc2cc(C(N)=O)cc(OC)c2n1C/C=C/Cn1c(NC(=O)c2cc(C)nn2CC)nc2cc(C(N)=O)cc(OCC#CC3CCN(S(=O)(=O)N4CCN(C(=O)OC(C)(C)C)CC4)CC3)c21` [Example 28, tert-butyl (E)-4-((4-(3-((5-carbamoyl-1-(4-(5-carbamoyl-2-(1-ethyl-3-methyl-1H-pyrazole-5-carboxamido)-7-methoxy-1H-benzo[d]imidazol-1-yl)but-2-en-1-yl)-2-(1-ethyl-3-methyl-1H-pyrazole-5-carboxamido)-1H-benzo[d]imidazol-7-yl)oxy)prop-1-yn-1-yl)piperidin-1-yl)sulfonyl)piperazine-1-carboxylate], the EC50 is less than 50 nM. `CCn1nc(C)cc1C(=O)Nc1nc2cc(C(N)=O)cc(OC)c2n1C/C=C/Cn1c(NC(=O)c2cc(C)nn2CC)nc2cc(C(N)=O)cc(OCC#CC3CCN(S(=O)(=O)N4CCNCC4)CC3)c21` [Example 29, (E)-1-(4-(5-carbamoyl-2-(1-ethyl-3-methyl-1H-pyrazole-5-carboxamido)-7-((3-(1-(piperazin-1-ylsulfonyl)piperidin-4-yl)prop-2-yn-1-yl)oxy)-1H-benzo[d]imidazol-1-yl)but-2-en-1-yl)-2-(1-ethyl-3-methyl-1H-pyrazole-5-carboxamido)-7-methoxy-1H-benzo[d]imidazole-5-carboxamide hydrochloride]: the EC50 was less than 50 nM. The same measure for `CCn1nc(C)cc1C(=O)Nc1nc2cc(C(N)=O)cc(OC)c2n1C/C=C/Cn1c(NC(=O)c2cc(C)nn2CC)nc2cc(C(N)=O)cc(OCC#CC3CN(C(=O)OC(C)(C)C)C3)c21` [Example 30, tert-butyl (E)-3-(3-((5-carbamoyl-1-(4-(5-carbamoyl-2-(1-ethyl-3-methyl-1H-pyrazole-5-carboxamido)-7-methoxy-1H-benzo[d]imidazol-1-yl)but-2-en-1-yl)-2-(1-ethyl-3-methyl-1H-pyrazole-5-carboxamido)-1H-benzo[d]imidazol-7-yl)oxy)prop-1-yn-1-yl)azetidine-1-carboxylate]: less than 50 nM; for `CCn1nc(C)cc1C(=O)Nc1nc2cc(C(N)=O)cc(OC)c2n1C/C=C/Cn1c(NC(=O)c2cc(C)nn2CC)nc2cc(C(N)=O)cc(OCC#CC3CCN(C(=O)OC(C)(C)C)C3)c21` (stereo not drawn) [Example 31, tert-butyl (E)-3-(3-((5-carbamoyl-1-(4-(5-carbamoyl-2-(1-ethyl-3-methyl-1H-pyrazole-5-carboxamido)-7-methoxy-1H-benzo[d]imidazol-1-yl)but-2-en-1-yl)-2-(1-ethyl-3-methyl-1H-pyrazole-5-carboxamido)-1H-benzo[d]imidazol-7-yl)oxy)prop-1-yn-1-yl)pyrrolidine-1-carboxylate]: less than 50 nM. In the case of `CCn1nc(C)cc1C(=O)Nc1nc2cc(C(N)=O)cc(OC)c2n1C/C=C/Cn1c(NC(=O)c2cc(C)nn2CC)nc2cc(C(N)=O)cc(OCC#CC3CCCN(C(=O)OC(C)(C)C)C3)c21` (stereo not drawn) [Example 32, tert-butyl (E)-3-(3-((5-carbamoyl-1-(4-(5-carbamoyl-2-(1-ethyl-3-methyl-1H-pyrazole-5-carboxamido)-7-methoxy-1H-benzo[d]imidazol-1-yl)but-2-en-1-yl)-2-(1-ethyl-3-methyl-1H-pyrazole-5-carboxamido)-1H-benzo[d]imidazol-7-yl)oxy)prop-1-yn-1-yl)piperidine-1-carboxylate], the EC50 is less than 50 nM. Turning to `CCn1nc(C)cc1C(=O)Nc1nc2cc(C(=O)NOC)cc(OC)c2n1C/C=C/Cn1c(NC(=O)c2cc(C)nn2CC)nc2cc(C(N)=O)cc(OCC#CC(C)(C)O)c21` [Example 33, (E)-1-(4-(5-carbamoyl-2-(1-ethyl-3-methyl-1H-pyrazole-5-carboxamido)-7-((4-hydroxy-4-methylpent-2-yn-1-yl)oxy)-1H-benzo[d]imidazol-1-yl)but-2-en-1-yl)-2-(1-ethyl-3-methyl-1H-pyrazole-5-carboxamido)-N,7-dimethoxy-1H-benzo[d]imidazole-5-carboxamide], the concentration for a half-maximal effect (EC50) was more than 500 nM. `CCn1nc(C)cc1C(=O)Nc1nc2cc(C(N)=O)cc(OC)c2n1C/C=C/Cn1c(NC(=O)c2cc(C)nn2CC)nc2cc(C(N)=O)cc(OCC#CC3CCN(C(=O)OCCN(C)C)CC3)c21` [Example 34, 2-(dimethylamino)ethyl (E)-4-(3-((5-carbamoyl-1-(4-(5-carbamoyl-2-(1-ethyl-3-methyl-1H-pyrazole-5-carboxamido)-7-methoxy-1H-benzo[d]imidazol-1-yl)but-2-en-1-yl)-2-(1-ethyl-3-methyl-1H-pyrazole-5-carboxamido)-1H-benzo[d]imidazol-7-yl)oxy)prop-1-yn-1-yl)piperidine-1-carboxylate] showed an EC50 of less than 50 nM. `CCn1nc(C)cc1C(=O)Nc1nc2cc(C(=O)NOC)cc(OC)c2n1C/C=C/Cn1c(NC(=O)c2cc(C)nn2CC)nc2cc(C(N)=O)cc(OCC#CCN3CCN(C(=O)OC(C)(C)C)CC3)c21` [Example 36, tert-butyl (E)-4-(4-((5-carbamoyl-2-(1-ethyl-3-methyl-1H-pyrazole-5-carboxamido)-1-(4-(2-(1-ethyl-3-methyl-1H-pyrazole-5-carboxamido)-7-methoxy-5-(methoxycarbamoyl)-1H-benzo[d]imidazol-1-yl)but-2-en-1-yl)-1H-benzo[d]imidazol-7-yl)oxy)but-2-yn-1-yl)piperazine-1-carboxylate]: the EC50 is 50 to 500 nM. `CCn1nc(C)cc1C(=O)Nc1nc2cc(C(N)=O)cc(OC)c2n1C/C=C/Cn1c(NC(=O)c2cc(C)nn2CC)nc2cc(C(N)=O)cc(OCC#CCN3CCN(C(=O)OC(C)(C)C)CC3)c21` [Example 37]: the half-maximal effective concentration (EC50) was less than 50 nM. In turn, `CCn1nc(C)cc1C(=O)Nc1nc2cc(C(=O)NOC)cc(OC)c2n1C/C=C/Cn1c(NC(=O)c2cc(C)nn2CC)nc2cc(C(N)=O)cc(OCC#CCN3CCN(C(=O)C(C)C)CC3)c21` [Example 39, (E)-1-(4-(5-carbamoyl-2-(1-ethyl-3-methyl-1H-pyrazole-5-carboxamido)-7-((4-(4-isobutyrylpiperazin-1-yl)but-2-yn-1-yl)oxy)-1H-benzo[d]imidazol-1-yl)but-2-en-1-yl)-2-(1-ethyl-3-methyl-1H-pyrazole-5-carboxamido)-N,7-dimethoxy-1H-benzo[d]imidazole-5-carboxamide] displayed a 50% effective concentration (EC50) of more than 500 nM.
